# Measured values as given in patent USRE37180E, “Photochemotherapeutical obstruction of newly-formed blood vessels” (Meiji Seika Kaisha, Ltd., priority 1995, dated 2001).
# Where a name gives a salt, the structure may show the parent alone.
# Key:
# [1] = design: species or system normal pigmented rabbits; details: rabbit, in vivo
# [2] = metabolic speed and level in the blood plasma; format: in vivo
# [3] = acute toxicity tested by intravenous injection to CD-1 mice (male); details: mouse, in vivo
# [4] = tested on: active lesions of the neovascular tissues; experiment: accumulation in neovascular tissues; details: in vivo
# [5] = cited from earlier work
# light absorption = format: physicochemical; details: can absorb well
# [6] = tested on: choroidal neovascularization; experiment: occlusion of choroidal neovascularization upon irradiation with laser beam; format: in vivo; details: irradiation with a laser beam at 664 nm
# choroidal vessels = format: in vivo, normal pigmented rabbits
# Description: The predetermined regions (that is, said spots) of the blood vessels to be irradiated with the laser beam had been marked preliminarily by photo-coagulation by means of an argon laser beam. Immediately after the irradiation with the laser at 664 nm, as well as one week after the irradiation and one month after the irradiation with the laser at 664 nm, the fundus of the eyes under test was examined by fluorescein angiography.
# The eye so treated was subsequently observed under light microscope at the end of 2 hours after the laser irradiation.
# The laser-irradiated parts of the eye so treated were subsequently observed under light microscope at the end of 1 hour after the laser irradiation.
# [7] = liposolubility / penetration into normal tissues; format: physicochemical
# serum albumin = experiment: affinity to the serum albumin; format: binding
# photo-toxicity tests = format: in vivo
# in vivo cells = experiment: transfer into the in vivo cells; details: not by diffusion
smiles,measurement,setting,value
C=Cc1c(C)c2cc3nc(c(CC(=O)N[C@@H](CC(=O)O)C(=O)O)c4[nH]c(cc5nc(cc1[nH]2)C(C)=C5CC)c(C)c4C(=O)O)[C@@H](CCC(=O)O)[C@@H]3C [mono-L-aspartyl chlorin e6 tetra-sodium salt],level in the blood after the administration,[1],can decrease quickly during an earlier period after the administration
same,metabolism after administration into a human or animal body,[1],can be metabolized well after its administration into a human or animal body
same,level in the blood plasma,[2]; at the end of 10 hours from the administration,1/500
same,metabolic speed relative to photofrin,[2]; faster than photofrin,at least 10 times
same,LD50,[3],164 mg/kg
same,accumulation in the active lesions of the neovascular tissues,[4],can concentrate into and be accumulated well in the active lesions of the neovascular tissues
same,uptake into and excretion from the human and animal body,[5],quickly uptaken into and excreted from the human and animal body
same,light absorption wavelength,light absorption,664 nm
same,necrosis of the vascular endothelial cells and occlusion of choroidal neovascularization,[6],cause necrosis of the vascular endothelial cells and occlusion of choroidal neovascularization
same,"obstruction of choroidal blood vessels (choriocapillaris) maintained, light microscope","choroidal vessels; 25 mg/kg i.v., laser immediately after injection, 1 hour after irradiation","the choroidal blood vessels, more particularly the choriocapillaris continued to have been obstructed"
same,"endothelial cells of the chorio-capillaris / choriocapillaris, light microscope","choroidal vessels; 25 mg/kg i.v., laser immediately after injection, 2 hours after irradiation",endothelial cells of the chorio-capillaris had been swollen and necrotized and the choriocapillaris were obstructed
same,"extent of damages incurred in the choroidal vessels, laser one hour after versus immediately after injection","choroidal vessels; 25 mg/kg i.v., observed commonly for all the doses",the extent of damages incurred in the choroidal vessels is reduced at the laser irradiation as made one hour after the intravenous injection
same,degree of obstruction of choroidal vessels compared with argon laser photo-coagulation,"choroidal vessels; 25 mg/kg, laser immediately after administration, one week after irradiation, light microscope",the choroidal vessels were obstructed to a substantially same degree in the former case and the latter case
same,obstruction in the choroidal vessels,"choroidal vessels; 25, 50 and 100 mg/kg i.v., 664 nm laser immediately after injection, fluorescein angiography one week after irradiation",the obstruction took place in the choroidal vessels at all the doses
same,"degree of the obstruction in the choroidal vessels, dose dependence","choroidal vessels; 25, 50 and 100 mg/kg i.v., laser immediately after injection, one week after irradiation",the degree of the obstruction in the choroidal vessels increased with an increased doses
same,liposolubility,[7],low liposolubility
same,penetration and diffusion into healthy normal tissues having the barrier in vivo,[7],hard to penetrate and diffuse into the healthy normal tissues having the barrier in vivo
same,affinity to the serum albumin,serum albumin,has a nature of exhibiting affinity to the serum albumin
same,adverse side reactions such as erythema and edema,photo-toxicity tests,does not involve adverse side reactions such as erythema and edema
same,mode of transfer into the in vivo cells,in vivo cells,by the phagocytosis and/or pinocytosis
